The source of these data is BindingDB's records for doi:10.1016/j.ejmech.2014.07.015 (Tianjin University, 2014).

Residues, ends and D or L forms follow the SMILES beside them.

Sequence of Angiotensin-converting enzyme (P12821 whole entry): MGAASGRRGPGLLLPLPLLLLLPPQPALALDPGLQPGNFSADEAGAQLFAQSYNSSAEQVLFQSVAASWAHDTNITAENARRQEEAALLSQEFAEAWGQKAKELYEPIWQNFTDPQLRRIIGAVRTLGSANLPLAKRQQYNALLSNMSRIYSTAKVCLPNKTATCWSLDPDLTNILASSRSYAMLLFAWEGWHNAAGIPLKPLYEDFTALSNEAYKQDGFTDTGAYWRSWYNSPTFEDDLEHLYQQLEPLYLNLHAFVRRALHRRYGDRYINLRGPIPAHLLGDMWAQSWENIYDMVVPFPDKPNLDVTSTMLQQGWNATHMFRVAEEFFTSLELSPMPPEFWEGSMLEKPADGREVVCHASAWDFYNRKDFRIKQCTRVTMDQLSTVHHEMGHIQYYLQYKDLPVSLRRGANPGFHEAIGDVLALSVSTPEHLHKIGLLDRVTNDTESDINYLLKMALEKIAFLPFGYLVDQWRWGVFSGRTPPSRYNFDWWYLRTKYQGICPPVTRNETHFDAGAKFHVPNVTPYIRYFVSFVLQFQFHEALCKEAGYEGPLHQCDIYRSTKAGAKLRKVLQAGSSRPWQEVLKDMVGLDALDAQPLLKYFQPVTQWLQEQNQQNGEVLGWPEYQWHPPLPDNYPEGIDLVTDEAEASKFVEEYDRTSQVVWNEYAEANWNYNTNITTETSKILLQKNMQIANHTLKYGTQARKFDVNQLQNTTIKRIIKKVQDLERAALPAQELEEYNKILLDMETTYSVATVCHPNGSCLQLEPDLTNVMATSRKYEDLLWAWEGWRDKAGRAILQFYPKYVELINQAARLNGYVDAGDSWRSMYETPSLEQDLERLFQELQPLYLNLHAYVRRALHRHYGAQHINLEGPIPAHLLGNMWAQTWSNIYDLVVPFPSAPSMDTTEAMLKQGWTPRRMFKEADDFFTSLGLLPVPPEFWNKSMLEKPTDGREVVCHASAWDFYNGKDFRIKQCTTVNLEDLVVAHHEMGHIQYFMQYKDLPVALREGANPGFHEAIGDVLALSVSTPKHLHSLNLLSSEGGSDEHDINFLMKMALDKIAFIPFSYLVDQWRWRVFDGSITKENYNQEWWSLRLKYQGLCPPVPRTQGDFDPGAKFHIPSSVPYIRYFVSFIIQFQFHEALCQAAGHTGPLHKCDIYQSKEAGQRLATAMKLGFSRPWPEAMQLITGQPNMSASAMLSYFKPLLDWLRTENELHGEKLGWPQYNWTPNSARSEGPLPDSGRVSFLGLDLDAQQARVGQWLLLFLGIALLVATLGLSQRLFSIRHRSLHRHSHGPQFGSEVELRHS

This assay concerns the target Angiotensin-converting enzyme (Homo sapiens, UniProt P12821). Kind of assay: Inhibition of ACE (unknown origin).
As to `CC(C)C[C@H](N)C(=O)N[C@@H](Cc1ccc(O)cc1)C(=O)O`, the IC50 (commonly the concentration that inhibits the measured activity by half) amounted to 32.3 µM.

As to `CC[C@H](C)[C@H](N)C(=O)N[C@@H](Cc1c[nH]c2ccccc12)C(=O)O`, the IC50 amounted to 4.67 µM. `N=C(N)NCCC[C@H](N)C(=O)N[C@@H](Cc1ccccc1)C(=O)O` registered an IC50 of 93.3 µM. `CC(C)[C@H](NC(=O)[C@H](C)N)C(=O)NCC(=O)N1CCC[C@H]1C(=O)O` (H-AVGP-OH) gave an IC50 of 3.09 µM. Compared with the last compound, the IC50 is about 30-fold lower. `NC(N)=NCCC[C@H](N)C(=O)N1CCC[C@H]1C(=O)O` (H-Arg-Pro-OH) yielded an IC50 of 20.8 µM.

`NC(N)=NCCC[C@H](N)C(=O)N[C@@H](Cc1c[nH]c2ccccc12)C(=O)O` (H-Arg-Trp-OH) registered an IC50 of 15.8 µM.

`NC(=O)C[C@H](N)C(=O)N[C@@H](Cc1ccccc1)C(=O)O` (H-Asn-Phe-OH) came in with an IC50 of 46.7 µM. This IC50 lies about 3-fold higher than the previous one. As to `CC(C)C[C@H](NC(=O)[C@@H](N)CC(=O)O)C(=O)N1CCC[C@H]1C(=O)O` (H-Asp-Leu-Pro-OH), 4.78 µM corresponded to half-maximal inhibition (IC50). The compound `CC(C)[C@H](NC(=O)[C@@H](N)Cc1ccccc1)C(=O)N[C@@H](C)C(=O)N1CCC[C@H]1C(=O)O` (H-FVAP-OH) displayed an IC50 of 10 µM. The compound `C[C@H](NC(=O)[C@H](Cc1c[nH]c2ccccc12)NC(=O)CN)C(=O)N1CCC[C@H]1C(=O)O` (H-GWAP-OH) returned an IC50 of 3.89 µM. For `N=C(N)NCCC[C@H](NC(=O)CN)C(=O)N1CCC[C@H]1C(=O)O` (H-Gly-Arg-Pro-OH), the midpoint of inhibition, the IC50, lay at 19.9 µM. The result for `CC[C@H](C)[C@H](N)C(=O)N[C@@H](CCC(=O)O)C(=O)N1CCC[C@H]1C(=O)O` (H-Ile-Glu-Pro-OH) reads 1.58 µM; that for `CC[C@H](C)[C@H](N)C(=O)N[C@@H](CCCCN)C(=O)N1CCC[C@H]1C(=O)O` (H-Ile-Lys-Pro-OH), 6.91 µM; that for `CC(C)C[C@H](N)C(=O)N[C@@H](C)C(=O)N1CCC[C@H]1C(=O)O` (H-Leu-Ala-Pro-OH), 3.46 µM. On to `CC(C)C[C@H](N)C(=O)N[C@@H](CC(N)=O)C(=O)N1CCC[C@H]1C(=O)O` (H-Leu-Asn-Pro-OH), for which the midpoint of inhibition, the IC50, lay at 57.5 µM. Compared with the last compound, the IC50 is about 17-fold higher.

As for `CC(C)C[C@H](N)C(=O)N[C@@H](CCC(=O)O)C(=O)N1CCC[C@H]1C(=O)O` (H-Leu-Glu-Pro-OH), half-maximal inhibition (IC50) required 1.9 µM.

Take `CC(C)C[C@H](N)C(=O)N[C@@H](CCCCN)C(=O)N1CCC[C@H]1C(=O)O` (H-Leu-Lys-Pro-OH): it took 3.98 µM to reach half-maximal inhibition (IC50). This IC50 lies about 2.1-fold higher than the previous one. With `CC(C)C[C@H](N)C(=O)N[C@@H](CO)C(=O)N1CCC[C@H]1C(=O)O` (H-Leu-Ser-Pro-OH) the figure was 1.69 µM. With `CC(C)C[C@H](N)C(=O)N[C@@H](Cc1ccc(O)cc1)C(=O)N1CCC[C@H]1C(=O)O` (H-Leu-Tyr-Pro-OH) the figure was 6.6 µM; with `CSCC[C@H](N)C(=O)N[C@@H](CC(N)=O)C(=O)N1CCC[C@H]1C(=O)O` (H-Met-Asn-Pro-OH), 66 µM; with `C[C@H](NC(=O)[C@@H](N)Cc1ccccc1)C(=O)N1CCC[C@H]1C(=O)O` (H-Phe-Ala-Pro-OH), 3.8 µM. The compound `NC(=O)CC[C@H](NC(=O)[C@@H](N)Cc1ccccc1)C(=O)N1CCC[C@H]1C(=O)O` (H-Phe-Gln-Pro-OH) came in with an IC50 of 12 µM. For the compound `N[C@@H](Cc1ccccc1)C(=O)N[C@@H](CCC(=O)O)C(=O)N1CCC[C@H]1C(=O)O` (H-Phe-Glu-Pro-OH), inhibition was half-maximal at 12 µM (IC50). As to `CC(C)[C@H](N)C(=O)N[C@@H](CO)C(=O)N[C@@H](CO)C(=O)N1CCC[C@H]1C(=O)O` (H-VSSP-OH), the IC50 amounted to 10 µM. Take `CC(C)[C@H](N)C(=O)N[C@@H](CCCNC(=N)N)C(=O)N1CCC[C@H]1C(=O)O` (H-Val-Arg-Pro-OH): the IC50 was determined as 2.18 µM. This IC50 is about 4.6-fold lower than that of the compound before. As for `CC(C)[C@H](N)C(=O)NCC(=O)N1CCC[C@H]1C(=O)O` (H-Val-Gly-Pro-OH), the IC50 amounted to 26.3 µM.

In the case of `CSCC[C@H](NC(=O)[C@@H](N)C(C)C)C(=O)N1CCC[C@H]1C(=O)O` (H-Val-Met-Pro-OH), 28.8 µM corresponded to half-maximal inhibition (IC50). Consider `CC(C)[C@H](N)C(=O)N[C@@H](CO)C(=O)N1CCC[C@H]1C(=O)O` (H-Val-Ser-Pro-OH), for which half-maximal inhibition (IC50) was put at 10 µM. `C[C@H](N)C(=O)N[C@@H](Cc1ccccc1)C(=O)O` [2-(2-Amino-propionylamino)-3-phenyl-propionic acid] registered an IC50 of 75.8 µM.

In turn, `NCC(=O)N[C@@H](Cc1c[nH]c2ccccc12)C(=O)O` [2-((S)-2-Amino-acetylamino)-3-(1H-indol-3-yl)-propionic acid] (H-Gly-Trp-OH) yielded an IC50 of 25.1 µM. In turn, `CC[C@H](C)[C@H](N)C(=O)N[C@@H](Cc1ccc(O)cc1)C(=O)O` [(S)-2-((S)-2-Amino-3-(S)-methyl-pentanoylamino)-3-(4-hydroxy-phenyl)-propionic acid] (H-Ile-Tyr-OH) displayed an IC50 of 6.16 µM.

`CC(C)[C@H](N)C(=O)N[C@@H](Cc1ccccc1)C(=O)O` [(S)-2-((S)-2-Amino-3-methyl-butyrylamino)-3-phenyl-propionic acid] (H-Val-Phe-OH) had an IC50 of 9.12 µM. The result for `C[C@H](N)C(=O)N[C@@H](Cc1c[nH]c2ccccc12)C(=O)O` [(S)-2-((S)-2-Amino-propionylamino)-3-(1H-indol-3-yl)-propionic acid] (H-Ala-Trp-OH) reads 12 µM; that for `C[C@H](N)C(=O)N[C@@H](Cc1ccc(O)cc1)C(=O)O` [(S)-2-((S)-2-Amino-propionylamino)-3-(4-hydroxy-phenyl)-propionic acid] (H-Ala-Tyr-OH), 19 µM. Compound `CC(C)[C@H](N)C(=O)N[C@@H](Cc1ccc(O)cc1)C(=O)O` [Ang(3-4)] (H-Val-Tyr-OH) showed an IC50 of 15.8 µM. The result for `CC(C)C[C@H](N)C(=O)N[C@@H](CCC(N)=O)C(=O)N1CCC[C@H]1C(=O)O` [CHEBI:73270] (H-Leu-Gln-Pro-OH) reads 1.9 µM. The result for `NC(=O)C[C@H](N)C(=O)N[C@@H](Cc1ccc(O)cc1)C(=O)O` [CHEBI:73427] (H-Asn-Tyr-OH) reads 32.3 µM. The result for `N[C@@H](CC(=O)O)C(=O)N[C@@H](Cc1ccc(O)cc1)C(=O)O` [CHEBI:73455] (H-Asp-Tyr-OH) reads 100 µM; that for `CC(C)C[C@H](N)C(=O)N[C@@H](Cc1c[nH]c2ccccc12)C(=O)O` [CHEBI:73590], 17.3 µM; that for `NCCCC[C@H](N)C(=O)N[C@@H](Cc1ccccc1)C(=O)O` [CHEBI:73605], 28.1 µM. Turning to `N[C@@H](Cc1ccccc1)C(=O)N[C@@H](Cc1ccc(O)cc1)C(=O)O` [CHEBI:73637] (H-Phe-Tyr-OH), inhibition was half-maximal at 25.1 µM (IC50). The result for `N[C@@H](CO)C(=O)N[C@@H](Cc1ccc(O)cc1)C(=O)O` [CHEBI:73652] (H-Ser-Tyr-OH) reads 66 µM; that for `N=C(N)NCCC[C@H](N)C(=O)N[C@@H](Cc1ccc(O)cc1)C(=O)O` [CHEBI:73822] (H-Arg-Tyr-OH), 51.2 µM. The result for `N[C@@H](Cc1c[nH]cn1)C(=O)N[C@@H](Cc1ccc(O)cc1)C(=O)O` [CHEBI:74059] (H-His-Tyr-OH) reads 26.3 µM; that for `NCCCC[C@H](N)C(=O)N1CCC[C@H]1C(=O)O` [CHEBI:74567] (H-Lys-Pro-OH), 21.8 µM; that for `CSCC[C@H](N)C(=O)N[C@@H](Cc1ccccc1)C(=O)O` [CHEBI:74708] (H-Met-Phe-OH), 44.6 µM.

The compound `CSCC[C@H](N)C(=O)N[C@@H](Cc1c[nH]c2ccccc12)C(=O)O` [CHEBI:74709] (H-Met-Trp-OH) came in with a 50% inhibitory concentration (IC50) of 10 µM. As to `C[C@@H](O)[C@H](N)C(=O)N[C@@H](Cc1ccccc1)C(=O)O` [CHEBI:74862] (H-Thr-Phe-OH), the concentration for half-maximal inhibition (IC50) was found to be 89.1 µM. With `CC[C@H](C)[C@H](N)C(=O)N[C@@H](C)C(=O)N1CCC[C@H]1C(=O)O` [Ile-Ala-Pro] (H-Ile-Ala-Pro-OH) the figure was 2.69 µM; with H-AVPYP-OH, 79.4 µM; with H-DYGLYP-OH, 61.6 µM. Consider H-FFVAP-OH, for which half-maximal inhibition (IC50) required 6.02 µM.

In turn, H-IAYKP-OH had an IC50 of 2.18 µM.

H-LAYFYP-OH came in with an IC50 of 64.5 µM.

The compound H-LHLPAP-OH gave an IC50 of 6.02 µM. Compared with the last compound, the IC50 is about 11-fold lower.

In the case of H-LHLPGP-OH, the IC50 amounted to 1.9 µM. This IC50 is about 3.2-fold lower than that of the compound before. The result for H-LHLPLP-OH reads 3.71 µM. With H-LHLPYP-OH, the IC50 worked out at 2.29 µM. With H-LHLWLP-OH the figure was 8.91 µM; with H-LHLYLP-OH, 19 µM; with H-RPQIPP-OH, 45.7 µM. With H-SKVPP-OH the figure was 74.1 µM; with H-VHLAP-OH, 4.46 µM. The result for H-VHLPP-OH reads 18.1 µM; that for H-VLPIP-OH, 30.9 µM; that for H-VLPYP-OH, 36.3 µM.
